Experimental findings from article PMC10709440, “High-throughput ligand profile characterization in novel cell lines expressing seven heterologous insect olfactory receptors for the detection of volatile plant biomarkers” (Scientific Reports, 2023) are described below.

Where two headings read alike, the source gives them in different places.

Assay [1] has as its target T1, Drosophila OR47a (Drosophila melanogaster, UniProt P81921).
T1 construct: expressed in transfected cells
T1 sequence (P81921 1-385): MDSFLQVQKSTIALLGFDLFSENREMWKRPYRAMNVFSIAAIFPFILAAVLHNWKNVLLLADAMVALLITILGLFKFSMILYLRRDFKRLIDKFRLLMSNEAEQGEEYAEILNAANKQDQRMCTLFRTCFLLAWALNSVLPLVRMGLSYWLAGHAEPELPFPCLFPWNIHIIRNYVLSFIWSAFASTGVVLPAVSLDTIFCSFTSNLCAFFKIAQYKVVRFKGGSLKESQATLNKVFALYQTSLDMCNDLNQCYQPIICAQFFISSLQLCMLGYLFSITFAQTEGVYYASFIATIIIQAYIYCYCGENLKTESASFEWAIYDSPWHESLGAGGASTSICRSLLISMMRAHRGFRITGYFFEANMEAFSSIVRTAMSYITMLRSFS
T1 sequence (Q9VNB5 1-486 partner): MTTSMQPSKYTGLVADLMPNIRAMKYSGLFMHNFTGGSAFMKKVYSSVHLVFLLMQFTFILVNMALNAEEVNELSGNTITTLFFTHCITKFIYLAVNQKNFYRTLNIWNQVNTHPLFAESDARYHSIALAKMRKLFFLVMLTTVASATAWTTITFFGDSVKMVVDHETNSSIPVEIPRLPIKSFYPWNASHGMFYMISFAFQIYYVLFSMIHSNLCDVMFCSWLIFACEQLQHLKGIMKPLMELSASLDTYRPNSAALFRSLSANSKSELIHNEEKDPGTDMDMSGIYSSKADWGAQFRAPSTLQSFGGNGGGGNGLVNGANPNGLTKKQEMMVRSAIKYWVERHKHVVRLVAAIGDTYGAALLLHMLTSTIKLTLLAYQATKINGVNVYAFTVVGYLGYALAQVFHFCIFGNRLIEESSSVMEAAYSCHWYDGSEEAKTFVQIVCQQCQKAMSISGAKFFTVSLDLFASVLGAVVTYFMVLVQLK
The assay is described as follows: Calcium ion fluorescence (GCaMP6) assay, OR47a stable HEK293 cell line. The class given is cell-based. The settings on record: for activation at 1 µM / activation at 10 µM / activation at 100 µM: HEK293, read-out: OR47a response (VUAA1-normalized response); for Average response: OR47a cell line, mean of biological replicates. Put shortly: (§1)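 Responses are VUAA1-normalized ΔF: each VOC-evoked calcium signal, (FMAX−F0)/F0 over 30 s after injection, divided by the same line's mean 50 µM VUAA1 response. Cells were doxycycline-induced HEK293 with GCaMP6 and the cognate Drosophila OR, in HEPES buffer pH 7.3; ligands tested 0.01–100 μM.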

Assay [2] deals with T2, Drosophila OR10a (Drosophila melanogaster, UniProt Q9VYZ1).
T2 construct: expressed in transfected cells
T2 sequence (Q9VYZ1 1-406): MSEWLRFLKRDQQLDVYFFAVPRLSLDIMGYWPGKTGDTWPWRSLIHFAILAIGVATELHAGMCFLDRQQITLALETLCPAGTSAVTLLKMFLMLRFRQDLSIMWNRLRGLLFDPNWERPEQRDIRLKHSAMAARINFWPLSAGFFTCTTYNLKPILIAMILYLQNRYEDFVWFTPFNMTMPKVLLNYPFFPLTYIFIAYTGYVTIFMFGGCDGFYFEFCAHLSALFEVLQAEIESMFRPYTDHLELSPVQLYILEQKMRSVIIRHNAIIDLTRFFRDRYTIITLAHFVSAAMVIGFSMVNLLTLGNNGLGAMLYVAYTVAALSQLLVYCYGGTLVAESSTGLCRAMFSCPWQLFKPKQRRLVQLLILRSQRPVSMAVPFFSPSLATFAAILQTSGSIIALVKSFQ
T2 sequence (Q9VNB5 1-486 partner): T1 sequence (Q9VNB5 1-486 partner)
Put plainly: Calcium ion fluorescence (GCaMP6) assay, OR10a stable HEK293 cell line. It counts as cell-based. Put shortly: as §1

Setting [3] is: concentration 1, normalized fluorescence change, values below 0.05 threshold given as 0.
Setting [4] is: concentration 10, normalized fluorescence change, values below 0.05 threshold given as 0.
[5] abbreviates: concentration 100, normalized fluorescence change, values below 0.05 threshold given as 0.
Where [6] appears, read: HEK293, 1 μM VOC, 50 μM VUAA1 = 1, responses not exceeding 0.05 considered 0, read-out: OR10a Average response (VUAA1-normalized).
The mark [7] stands for this setting: HEK293, 10 μM VOC, 50 μM VUAA1 = 1, responses not exceeding 0.05 considered 0, read-out: OR10a Average response (VUAA1-normalized).
[8] abbreviates: HEK293, 100 μM VOC, 50 μM VUAA1 = 1, responses not exceeding 0.05 considered 0, read-out: OR10a Average response (VUAA1-normalized).
The mark [9] stands for this setting: HEK293, read-out: OR10a response (VUAA1-normalized response), VOC concentration 1 μM.
The mark [10] stands for this setting: HEK293, read-out: OR10a response (VUAA1-normalized response), VOC concentration 10 μM.
[11] abbreviates: HEK293, read-out: OR10a response (VUAA1-normalized response), VOC concentration 100 μM.
The mark [12] stands for this setting: ligand concentration 1 (unit not given), threshold 0.05, below shown as 0.
[13] abbreviates: ligand concentration 10 (unit not given), threshold 0.05, below shown as 0.
Setting [14] is: ligand concentration 100 (unit not given), threshold 0.05, below shown as 0.
[15] abbreviates: 1 μM VOC, 50 μM VUAA1 = 1, responses not exceeding 0.05 considered 0.
Where [16] appears, read: 10 μM VOC, 50 μM VUAA1 = 1, responses not exceeding 0.05 considered 0.
[17] abbreviates: 100 μM VOC, 50 μM VUAA1 = 1, responses not exceeding 0.05 considered 0.

Consider `C=CC(O)C/C=C\CC` (centres unmarked) [(5Z)-octa-1,5-dien-3-ol], for which the activation at 1 µM in assay [1], in assay [2] (setting [6]) and in assay [2] (setting [9]) was 0% throughout. Further, the activation at 10 µM in assay [1] was found to be 0%; in assay [2] (setting [7]), 2.25%; in assay [2] (setting [10]) it was 0%. Moreover, the activation at 100 µM in assay [1], in assay [2] (setting [8]) and in assay [2] (setting [11]) was 0% in each case. In addition, the Average response in assay [1] (odorant cc. 1 µM), in assay [1] (odorant cc. 10 µM) and in assay [1] (odorant cc. 100 µM) was 0.00 throughout. Besides, the “DF norm AVERAGE OR47a” value in assay [1] (setting [3]), in assay [1] (setting [4]) and in assay [1] (setting [5]) was 0 in each case. The “DF norm AVERAGE OR10a” value in assay [2] amounted to 0.
For the molecule `CCCCCCCO` [1-heptanol], the activation at 1 µM turned out to be 0% in assay [1], 1.56% in assay [2] (setting [6]) and 0% in assay [2] (setting [9]). Also, the activation at 10 µM was 0% in assay [1], 6.57% in assay [2] (setting [7]) and 6.57% in assay [2] (setting [10]). Also, the activation at 100 µM in assay [1], in assay [2] (setting [8]) and in assay [2] (setting [11]) was 0% each time. The figures for the Average response in assay [1] (odorant cc. 1 µM), in assay [1] (odorant cc. 10 µM) and in assay [1] (odorant cc. 100 µM) were 0.00, 0.00 and 0.0219, respectively. Besides, the “DF norm AVERAGE OR47a” value in assay [1] (setting [3]), in assay [1] (setting [4]) and in assay [1] (setting [5]) was 0 in each case.
With `Cc1cccc(O)c1` [3-methylphenol], the activation at 1 µM in assay [1] is 0%; in assay [2] (setting [6]) it was 9%; in assay [2] (setting [9]), 9%. For the same molecule, the activation at 10 µM came to 0% in assay [1], 6% in assay [2] (setting [7]) and 6% in assay [2] (setting [10]). Moreover, the activation at 100 µM was found to be 0% in assay [1], 13% in assay [2] (setting [8]) and 13% in assay [2] (setting [11]). The Average response in assay [1] (odorant cc. 1 µM), in assay [1] (odorant cc. 10 µM) and in assay [1] (odorant cc. 100 µM) was 0.00 throughout. The “DF norm AVERAGE OR47a” value in assay [1] (setting [3]), in assay [1] (setting [4]) and in assay [1] (setting [5]) was 0 each time.
As for `CCCCCC(O)CC` (centres unmarked) [3-octanol], the activation at 1 µM in assay [1], in assay [2] (setting [6]) and in assay [2] (setting [9]) was 0% each time. Moreover, the activation at 10 µM in assay [1] came out at 0%; in assay [2] (setting [7]) it was 6%; in assay [2] (setting [10]), 6%. The activation at 100 µM turned out to be 9% in assay [1], 6% in assay [2] (setting [8]) and 6% in assay [2] (setting [11]). Further, the Average response in assay [1] (odorant cc. 1 µM) was determined as 0.00; in assay [1] (odorant cc. 10 µM), 0.00; in assay [1] (odorant cc. 100 µM), 0.09. The “DF norm AVERAGE OR47a” value was 0 in assay [1] (setting [3]), 0 in assay [1] (setting [4]) and 0.08889 in assay [1] (setting [5]). The “DF norm AVERAGE OR10a” value is 0 in assay [2], 0.05884 in assay [2] (setting [4]) and 0.05921 in assay [2] (setting [5]).
As for `CC1=CCC2CC1C2(C)C` (stereo not drawn) [alpha-pinene], the activation at 1 µM in assay [1] was determined as 0%; in assay [2] (HEK293, read-out: OR10a Average response (VUAA1-normalized), 1 μM VOC, 50 μM VUAA1 = 1, responses not exceeding 0.05 considered 0) it was 5%; in assay [2] (setting [9]), 0%. Further, the activation at 10 µM in assay [1] is 0%; in assay [2] (HEK293, read-out: OR10a Average response (VUAA1-normalized), 10 μM VOC, 50 μM VUAA1 = 1, responses not exceeding 0.05 considered 0) it was 0%; in assay [2] (setting [10]), 0%. The activation at 100 µM in assay [1] turned out to be 0%; in assay [2] (HEK293, read-out: OR10a Average response (VUAA1-normalized), 100 μM VOC, 50 μM VUAA1 = 1, responses not exceeding 0.05 considered 0), 7.44%; in assay [2] (setting [11]) it was 7.44%. In addition, the Average response in assay [1] (odorant cc. 1 µM) is on record as 0.04; in assay [1] (odorant cc. 10 µM), 0.00; in assay [1] (odorant cc. 100 µM), 0.0468. The “DF norm AVERAGE OR47a” value in assay [1] (setting [12]), in assay [1] (setting [13]) and in assay [1] (setting [14]) was 0 in each case. Besides, the “DF norm AVERAGE OR10a” value in assay [2] (setting [12]) amounted to 0; in assay [2] (setting [13]), 0; in assay [2] (setting [14]) it was 0.07438.
As to (+)-beta-cedrene, the Average response in assay [1] (odorant cc. 1 µM), in assay [1] (odorant cc. 10 µM) and in assay [1] (odorant cc. 100 µM) was 0.00 in each case. Moreover, the “OR47a response (VUAA1-normalized response)” value in assay [1] (VOC concentration 1 μM), in assay [1] (VOC concentration 10 μM) and in assay [1] (VOC concentration 100 μM) was 0.00 throughout. In addition, the “DF norm AVERAGE OR47a” value in assay [1] (setting [3]), in assay [1] (setting [4]) and in assay [1] (setting [5]) was 0 each time. Moreover, the “DF norm AVERAGE OR10a” value in assay [2] worked out at 0. The “OR10a Average response (VUAA1-normalized)” value was determined as 0.0218 in assay [2] (setting [15]), 0.0187 in assay [2] (setting [16]) and 0.00 in assay [2] (setting [17]). The “OR10a response (VUAA1-normalized response)” value in assay [2] (VOC concentration 1 μM), in assay [2] (VOC concentration 10 μM) and in assay [2] (VOC concentration 100 μM) was 0.00 each time.
As for `C=C(C)[C@H]1CC=C(C)CC1` [(R)-(+)-limonene], the Average response is on record as 0.05 in assay [1] (odorant cc. 1 µM), 0.0529 in assay [1] (odorant cc. 10 µM) and 0.00 in assay [1] (odorant cc. 100 µM). For the same molecule, the “OR47a response (VUAA1-normalized response)” value in assay [1] (VOC concentration 1 μM) is on record as 0.00; in assay [1] (VOC concentration 10 μM), 0.0529; in assay [1] (VOC concentration 100 μM), 0.00. The results for the “DF norm AVERAGE OR47a” value in assay [1] (setting [3]), in assay [1] (setting [4]) and in assay [1] (setting [5]) were 0, 0.05286 and 0, respectively. Besides, the “OR10a Average response (VUAA1-normalized)” value in assay [2] (setting [15]) was 0.00; in assay [2] (setting [16]), 0.12; in assay [2] (setting [17]), 0.0152. Also, the “OR10a response (VUAA1-normalized response)” value in assay [2] (VOC concentration 1 μM) is 0.00; in assay [2] (VOC concentration 10 μM), 0.12; in assay [2] (VOC concentration 100 μM), 0.00.
